# In the supplement of paper PMC12317010:
# Structures can show the parent of a compound that is named as a salt.
# Assay: collision cross section in nitrogen (drift tube, single-field); higher = larger gas-phase ion size
# [1] = ion type: [M+H], ion source: APCI, ion mode: Positive
# [2] = ion type: [M+H], ion source: ESI, ion mode: Positive
# [3] = ion type: [M+Na], ion source: ESI, ion mode: Positive
# [4] = ion type: [M-H], ion source: ESI, ion mode: Negative
# 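Also: chemical standards at 10 µM analysed by drift tube IMS-QTOF MS in about 3.95 torr nitrogen, mean of duplicate injections differing ≤1%, mass error below 10 ppm.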
Structure (SMILES),collision cross section in nitrogen [1] [Å²],collision cross section in nitrogen [2] [Å²],collision cross section in nitrogen [3] [Å²],collision cross section in nitrogen [4] [Å²],"collision cross section in nitrogen (ion type: [M+], ion source: APCI, ion mode: Positive) [Å²]"
Cc1ccc(OP(=O)(Oc2ccc(C)cc2)Oc2ccc(C)cc2)cc1 [Tris(4-methylphenyl) phosphate],191,190.1,200.1,–,–
"S=c1[nH]c(=S)[nH]c(=S)[nH]1 [Trisodium 2,4,6-trithioxo-1,3,5-triazinane-1,3,5-triide]",–,–,–,125.6,–
CC1(C)CCC(=Cc2ccc(Cl)cc2)C1(O)Cn1cncn1 (configuration not stated) [Triticonazole],181.7,180.6,189,–,–
ClC(c1ccccc1)(c1ccccc1)c1ccccc1 [Trityl chloride],162.5,–,–,–,–
Cc1ccc(OP(=O)(Oc2ccc(C)cc2C)Oc2ccc(C)cc2C)c(C)c1 [Trixylyl phosphate],204.2,203.1,212.6,–,–
Cc1c(C)c2c(c(C)c1O)CCC(C)(COc1ccc(CC3SC(=O)NC3=O)cc1)O2 (configuration not stated) [Troglitazone],–,–,–,193.9,–
O=c1ccc2ccc(O)cc2o1 [Umbelliferone],–,–,–,127.4,–
O=C(O)CCCCCCCCCC(=O)O [Undecanedioic acid],–,–,–,149,–
O=c1[nH]c(=O)c2[nH]c(=O)[nH]c2[nH]1 [Uric acid],–,–,–,126.4,–
CC(=O)c1c(O)c(C)c(O)c2c1OC1=CC(=O)C(C(C)=O)C(=O)C12C (configuration not stated) [Usnic acid],–,–,–,177.1,–
CCCC(CCC)C(=O)O [Valproic acid],–,–,–,137.1,–
Clc1ccc(Nc2nnc(Cc3ccncc3)c3ccccc23)cc1 [Vatalanib dihydrochloride],188,187.6,191.4,188.9,–
COc1ccc(C(CN(C)C)C2(O)CCCCC2)cc1 (configuration not stated) [Venlafaxine hydrochloride],170.8,170.7,177.7,–,–
CC[C@]12CCCN3CCc4c(n(c5ccccc45)[C@@](O)(C(=O)OC)C1)[C@@H]32 [Vincamine],182.5,183.2,–,–,–
C=CC1(C)OC(=O)N(c2cc(Cl)cc(Cl)c2)C1=O (configuration not stated) [Vinclozolin],–,–,–,154.4,–
COc1cccc([C@H](O)C2CCN(CCc3ccc(F)cc3)CC2)c1OC [Volinanserin],185,185,188,–,–
CC(=O)CC(c1ccccc1)c1c(O)c2ccccc2oc1=O (configuration not stated) [Warfarin],167.4,166.9,179.1,172.2,–
CN(CCO)CC(O)Cn1cnc2c1c(=O)n(C)c(=O)n2C (configuration not stated) [Xanthinol niacinate],171.8,171.7,175.7,–,–
O=c1c2ccccc2oc2ccccc12 [Xanthone],135.2,–,–,–,–
CCOC(=O)CN[C@@H](C(=O)N1CC[C@H]1C(=O)NCc1ccc(/C(N)=N/O)cc1)C1CCCCC1 [Ximelagatran],208.6,208.6,213,216.1,–
Cc1occc1C(=O)Nc1ccc(C(=O)N2CCC(F)(F)/C(=C\C(=O)N3CCC(N4CCCCC4)CC3)c3ccccc32)cc1 [YM 218],240.1,239,262.5,–,–
COP(=O)(OC)O/C(=C\Cl)c1cc(Cl)c(Cl)cc1Cl [Z-Tetrachlorvinphos],–,–,177.9,–,–
c1ccc(C(O[C@@H]2CCCN(CCc3ccc4c(c3)OCO4)C2)c2ccccc2)cc1 [Zamifenacin],192.3,192.4,195.9,–,–
C[C@H]1CCCC(=O)CCC/C=C/c2cc(O)cc(O)c2C(=O)O1 [Zearalenone],–,–,–,177.5,–

Structure (SMILES),collision cross section in nitrogen [1] [Å²],collision cross section in nitrogen [2] [Å²],collision cross section in nitrogen [3] [Å²],collision cross section in nitrogen [4] [Å²],"collision cross section in nitrogen (ion type: [M+], ion source: APCI, ion mode: Positive) [Å²]"
O=C(O)Cn1c(=O)n(Cc2ccc(Br)cc2F)c(=O)c2ccc(Cl)cc21 [Zenarestat],–,–,–,188.9,–
CC(c1cc2ccccc2s1)N(O)C(N)=O (configuration not stated) [Zileuton],–,–,156.4,–,–
CCC(C)(NC(=O)c1cc(Cl)c(C)c(Cl)c1)C(=O)CCl (configuration not stated) [Zoxamide],–,175.9,188,–,–
N#CCc1cccc(C(F)(F)F)c1 [[3-(Trifluoromethyl)phenyl]acetonitrile],–,–,–,129.1,–
"Cc1cccc(Nc2cc(Cl)nc(SCC(=O)O)n2)c1C [[4-Chloro-6-(2,3-xylidino)-2-pyrimidinylthio]acetic acid]",175.6,175.5,178.2,171,–
OC[C@H]1O[C@@H]2O[C@H]3[C@H](O)[C@@H](O)[C@@H](O[C@H]4[C@H](O)[C@@H](O)[C@@H](O[C@H]5[C@H](O)[C@@H](O)[C@@H](O[C@H]6[C@H](O)[C@@H](O)[C@@H](O[C@H]7[C@H](O)[C@@H](O)[C@@H](O[C@H]1[C@H](O)[C@H]2O)O[C@@H]7CO)O[C@@H]6CO)O[C@@H]5CO)O[C@@H]4CO)O[C@@H]3CO [alpha-Cyclodextrin],–,277.8,278.5,286.4,–
O=c1cc(-c2ccccc2)oc2c1ccc1ccccc12 [alpha-Naphthoflavone],161.7,160.7,185.7,–,–
c1csc(-c2ccc(-c3cccs3)s2)c1 [alpha-Terthiophene],–,–,–,–,146.4
"O=C1NC(=O)[C@@H]2CC=CC[C@H]12 [cis-1,2,3,6-Tetrahydrophthalimide]",–,–,–,133,–
N[C@H](Cc1c[nH]c2ccccc12)C(=O)O [d-Tryptophan],–,–,–,151.5,–
OC[C@H]1O[C@@H]2O[C@H]3[C@H](O)[C@@H](O)[C@@H](O[C@H]4[C@H](O)[C@@H](O)[C@@H](O[C@H]5[C@H](O)[C@@H](O)[C@@H](O[C@H]6[C@H](O)[C@@H](O)[C@@H](O[C@H]7[C@H](O)[C@@H](O)[C@@H](O[C@H]8[C@H](O)[C@@H](O)[C@@H](O[C@H]9[C@H](O)[C@@H](O)[C@@H](O[C@H]1[C@H](O)[C@H]2O)O[C@@H]9CO)O[C@@H]8CO)O[C@@H]7CO)O[C@@H]6CO)O[C@@H]5CO)O[C@@H]4CO)O[C@@H]3CO [gamma-Cyclodextrin],–,–,318.1,314.1,–
N[C@@H](Cc1c[nH]c2ccccc12)C(=O)O [l-Tryptophan],–,–,–,151.6,–
CC1(C)[C@H](/C=C(\Cl)C(F)(F)F)[C@@H]1C(=O)O[C@@H](C#N)c1cccc(Oc2ccccc2)c1 [lambda-Cyhalothrin],–,–,190.4,–,–
CCCCCOC(=O)CCCCC [n-Amyl caproate],–,–,–,151.6,–
CCCCCCCCCCCCc1ccccc1O [n-Dodecylphenol],–,–,–,173.8,–
Cc1cc(N=Nc2ccccc2C)ccc1N [o-Aminoazotoluene],155.9,156,–,157.3,–
Cc1ccccc1O [o-Cresol],–,–,–,120.4,–
COc1ccc(N)cc1 [p-Anisidinium chloride],–,133.2,–,–,–
Cc1cc(C2(c3cc(C)c(O)cc3C)OS(=O)(=O)c3ccccc32)c(C)cc1O [p-Xylenol blue],194.4,194.5,200.6,198,–
CCC(C)OC(=O)c1ccc(O)cc1 (configuration not stated) [sec-Butylparaben],–,–,–,148.4,–
CC(C)(C)OC(=O)c1ccc(O)cc1 [tert-Butyl 4-hydroxybenzoate],–,–,–,148.2,–
CC(C)(C)OC(=O)c1ccccc1C(=O)O [tert-Butyl hydrogen phthalate],–,–,–,151.6,–
CCCCCCCC/C=C/CCCCCCCC(=O)OCC(O)CO (stereo not drawn) [trans-Monoelaidin],–,–,199,–,–
